According to publication PMC6968640, “Development of potent reversible selective inhibitors of butyrylcholinesterase as fluorescent probes” (Journal of Enzyme Inhibition and Medicinal Chemistry, 2020):
Where “and” joins values, the source holds several entries; their conditions need not be identical. Equal entries are not always repeated. Entries after “also recorded” stand apart in the source; their conditions may differ. Where two headings read alike, the source gives them in different places.

Key:
hBChE [1] = target: T1, hBChE (Homo sapiens, UniProt P06276); assay: Inhibition of huBChE, method of Ellman; type: biochemical; conditions: for IC50: 500 µM butyrylthiocholine iodide, 1 nM enzyme, pH 8.0, room temperature; for remaining activity at 100 µM: compound at 100 µM, read-out: huBChE residual activity (RA)
T1 sequence (P06276 29-602): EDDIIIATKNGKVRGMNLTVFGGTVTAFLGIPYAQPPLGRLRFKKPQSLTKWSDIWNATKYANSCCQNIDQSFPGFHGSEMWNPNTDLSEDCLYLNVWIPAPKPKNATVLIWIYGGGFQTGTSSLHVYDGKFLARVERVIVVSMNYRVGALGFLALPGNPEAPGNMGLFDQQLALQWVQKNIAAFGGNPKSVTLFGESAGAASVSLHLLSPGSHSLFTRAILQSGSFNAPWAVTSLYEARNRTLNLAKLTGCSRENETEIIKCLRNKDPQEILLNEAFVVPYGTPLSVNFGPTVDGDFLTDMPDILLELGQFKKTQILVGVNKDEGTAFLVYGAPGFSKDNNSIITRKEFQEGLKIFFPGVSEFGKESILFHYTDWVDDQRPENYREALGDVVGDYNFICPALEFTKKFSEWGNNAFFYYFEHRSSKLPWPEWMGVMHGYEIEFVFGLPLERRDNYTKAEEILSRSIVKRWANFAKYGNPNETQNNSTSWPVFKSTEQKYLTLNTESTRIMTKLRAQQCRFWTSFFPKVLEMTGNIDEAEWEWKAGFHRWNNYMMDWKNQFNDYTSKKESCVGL
Procedure: (§1) The inhibitory potencies of these probes against cholinesterases (i.e. huAChE, murine AChE [mAChE] and huBChE) were determined using the method of Ellman[18], as previously described. The assays were carried out at room temperature in 100 mM phosphate buffer, pH 8.0, containing 333 µM Ellman reagent (5,5′-dithiobis(2-nitrobenzoic acid); DTNB), 500 µM substrate (huAChE/mAChE: acetylthiocholine; huBChE: butyrylthiocholine iodide [BSCh]) and huAChE/mAChE or huBChE (50 pM, 1 nM, respectively). […] Formation of the yellow product was followed for 1 min as the change in the absorbance at 412 nm, using a microplate reader (Synerg H4; BioTek Instruments, Inc., USA). For screening for inhibitory activities, the compounds were assayed at 100 µM, in triplicate. The initial velocities in the absence (v0) and presence (vi) of the test compounds were calculated. […].
(§2) For the IC50 measurements, serial dilutions were prepared for the compounds with RAs <50% at 100 µM. The IC50 values were calculated by plotting the RAs against the compound concentration according to a four-parameter logistic function, using the GraphPad Prism 8 software (GraphPad Software, USA). All of the measurements were repeated twice, each of which was in triplicate.

mAChE = mAChE (Mus musculus, UniProt P21836); assay: Inhibition of mAChE, method of Ellman; type: biochemical; conditions: compound at 100 µM; read-out: mAChE residual activity (RA)
Sequence of mAChE (P21836 32-614): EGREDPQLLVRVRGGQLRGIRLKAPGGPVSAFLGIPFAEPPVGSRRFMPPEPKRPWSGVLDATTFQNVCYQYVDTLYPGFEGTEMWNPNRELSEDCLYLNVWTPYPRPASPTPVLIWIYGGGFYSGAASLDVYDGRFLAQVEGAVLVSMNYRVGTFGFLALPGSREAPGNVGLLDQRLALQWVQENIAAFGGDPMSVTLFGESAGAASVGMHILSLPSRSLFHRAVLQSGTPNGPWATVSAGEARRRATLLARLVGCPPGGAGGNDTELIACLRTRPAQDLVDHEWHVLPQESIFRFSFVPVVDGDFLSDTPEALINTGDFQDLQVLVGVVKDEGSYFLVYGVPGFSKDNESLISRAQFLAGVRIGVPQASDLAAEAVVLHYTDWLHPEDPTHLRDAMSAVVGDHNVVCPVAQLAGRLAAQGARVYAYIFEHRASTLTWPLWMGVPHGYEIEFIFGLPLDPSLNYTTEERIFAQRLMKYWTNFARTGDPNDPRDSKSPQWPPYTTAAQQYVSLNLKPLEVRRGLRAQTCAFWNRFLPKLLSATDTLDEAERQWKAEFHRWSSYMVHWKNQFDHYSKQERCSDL
Procedure: as §1, §2

huAChE = huAChE (Homo sapiens, UniProt P22303); assay: Inhibition of huAChE, method of Ellman; type: biochemical; conditions: compound at 100 µM; read-out: huAChE residual activity (RA)
Sequence of huAChE (P22303 32-614): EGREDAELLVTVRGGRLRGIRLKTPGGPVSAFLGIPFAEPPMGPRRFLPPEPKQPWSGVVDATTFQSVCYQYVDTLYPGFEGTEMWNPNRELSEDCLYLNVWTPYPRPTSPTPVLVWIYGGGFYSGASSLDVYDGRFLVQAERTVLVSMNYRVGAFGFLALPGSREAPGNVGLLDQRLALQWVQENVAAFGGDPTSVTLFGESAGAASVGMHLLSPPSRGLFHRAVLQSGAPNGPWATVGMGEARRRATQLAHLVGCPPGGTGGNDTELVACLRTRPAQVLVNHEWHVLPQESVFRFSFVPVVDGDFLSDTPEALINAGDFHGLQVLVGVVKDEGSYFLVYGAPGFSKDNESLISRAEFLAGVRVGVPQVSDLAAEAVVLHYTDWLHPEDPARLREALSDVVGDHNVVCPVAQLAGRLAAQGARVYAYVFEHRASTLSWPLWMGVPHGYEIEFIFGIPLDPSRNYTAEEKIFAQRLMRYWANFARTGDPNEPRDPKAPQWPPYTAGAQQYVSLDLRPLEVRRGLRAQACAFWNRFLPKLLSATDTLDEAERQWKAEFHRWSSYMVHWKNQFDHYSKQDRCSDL
Procedure: as §1, §2

purified huBChE = target: T2, purified huBChE (Homo sapiens, UniProt P06276); assay: Kinetic studies: progress curves of BSCh hydrolysis by purified huBChE; type: biochemical; conditions: 25 °C, 25 mM phosphate buffer pH 7.0, about 50 µM BSCh
T2 construct: gift from Drs; O. Lockridge and L. Schopfer
T2 sequence (P06276 29-602): as the sequence (P06276 29-602) above
Procedure: Purified huBChE was a generous gift from Drs. O. Lockridge and L. Schopfer. DTNB and BSCh were from Sigma. All other reagents used were of analytical grade. The experiments were carried out at 25 °C in 25 mM phosphate buffer, pH 7.0.
Three compounds (2C, 3A, 3B) were tested by measuring the progress curves for BSCh hydrolysis by huBChE in the absence and presence of each of these compounds at five to seven concentrations. Assays were carried out over 10 min, in a 0.6-ml cuvette, using the method of Ellman et al[18]. The compound concentrations used were: 2C, 0–1 µM; 3A, 0–200 µM; and 3B, 0–50 nM.
The concentration of purified huBChE, which was always the final addition to these assays, was ∼0.5 nM. The hydrolysis of 50 µM BSCh was followed until completion (in most cases), in the presence of 1 mM DTNB. Reaching the plateau was important to get a precise estimate of the actual added BSCh concentration. For the calculation, the molar absorption coefficient of […] was used. All of the measurements were performed using a conventional UV/Vis spectrophotometer (Lambda45; Perkin-Elmer). Due to the experimental manipulation, a dead time of 10 s was added to each measurement, and all progress curves were extrapolated accordingly prior to the analysis.
. This programme is designed to generate differential equations from drawn reaction schemes and subsequently to fit the coefficients of these equations according to least squares methodology to reproduce the experimental data using a numerical integration algorithm. For determination of the kinetics mechanisms and parameters, the van Slyke-Cullen single intermediate reaction scheme[23] for substrate hydrolysis by huBChE was combined with a reversible mixed inhibition mechanism (Figure 1). […]
Figure 1. Reaction scheme for the inhibition of BSCh hydrolysis by purified huBChE in the presence of DTNB by compounds 2C, 3A, and 3B. E, free enzyme; EA, acylated intermediate; S, substrate BSCh; P, all of the stoichiometrically released products (SCh-TNB, TNB^–); and I, compounds (inhibitors) 2C, 3A, and 3B. The symbols for the constants are: kcat (k1), catalytic constant for BSCh turnover; Km (k0), Michaelis constant; Kp = k3/k2, inhibition constant for binding of the product thiocholine-TNB; K1 = k5/k4 and K2 = k7/k6, dissociation constants for binding of the compounds to the free and acylated enzyme, respectively.

hBChE [2] = target: T1, hBChE; assay: Fluorescence titration of hBChE with probe 2C; conditions: in duplicate, fitted to sum of hyperbolic and linear equation; read-out: binding constant from fluorescence titration
Procedure: 4. Titration of hBChE with probe 2C
Figure S2. The fluorescence titration data, in duplicate, were simultaneously fitted to the sum of hyperbolic and linear equation. The determined binding constant for probe 2C was 5.5 +/- 1.6 nM, remarkably similar to the inhibition constant for the binding to the free enzyme (3.3 nM, see Table 1 in […]
(1 picture or pasted object on this page, not shown here)

BChE in rat brain slices = target: T3, BChE in rat brain slices (Rattus norvegicus, UniProt Q9JKC1); conditions: rat brain cryosections, AChE blocked with 0.1 mM BW-284C51
T3 construct: coronal cryosections (10 μm) of a rat brain; from tissue; host or cells: rat brain coronal cryosections at the level of the thalamus
T3 sequence (Q9JKC1 24-597): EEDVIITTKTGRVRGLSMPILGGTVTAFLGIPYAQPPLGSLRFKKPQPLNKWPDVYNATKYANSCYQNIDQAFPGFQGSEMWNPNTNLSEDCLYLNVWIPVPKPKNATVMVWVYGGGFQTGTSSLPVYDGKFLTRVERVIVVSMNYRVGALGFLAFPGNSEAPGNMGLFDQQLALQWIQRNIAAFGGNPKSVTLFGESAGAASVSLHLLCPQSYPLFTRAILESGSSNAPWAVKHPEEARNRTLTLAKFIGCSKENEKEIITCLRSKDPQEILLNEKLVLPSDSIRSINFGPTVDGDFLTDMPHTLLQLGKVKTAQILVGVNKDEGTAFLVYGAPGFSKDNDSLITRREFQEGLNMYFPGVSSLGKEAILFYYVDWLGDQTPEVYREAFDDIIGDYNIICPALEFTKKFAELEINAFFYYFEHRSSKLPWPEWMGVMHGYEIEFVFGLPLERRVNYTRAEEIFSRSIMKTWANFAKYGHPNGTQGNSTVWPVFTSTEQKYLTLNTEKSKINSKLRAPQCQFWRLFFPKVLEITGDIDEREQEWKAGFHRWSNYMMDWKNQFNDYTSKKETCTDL
Procedure: Sections of rat brain with the highest BChE activity were selected and the modified Koelle − Karnovsky histochemical method was used to detect BChE activity[16]^,[40–42].
Histochemical staining for BChE activity of coronal cryosections (10 μm) of a rat brain from two regions (top/bottom row) at the level of the thalamus. All sections were processed with 0.1 mM BW-284C51 in Koelle solution, to completely block AChE activity. […] The relative optical density (ROD) pseudocolor scale for staining intensity of BChE activity is on the right.
BChE activity histochemical staining of coronal cryosections (10 μm) of a rat brain from
two regions at the level of the thalamus. All sections were processed with 0.1 mM BW-284C51 in
Koelle solution to completely block the AChE activity (A, B). For the inhibition experiment, the
relative optical density (ROD) pseudocolor scale for the staining intensity of BChE activity is shown
on the right. The photomicrographs show BChE -rich neurons in the laterodorsal thalamic nucleus

[3] = Solubility in aqueous buffers; type: physicochemical
hBChE [4] = target: T1, hBChE; assay: Fluorescence emission of probes on binding to huBChE; conditions: probe 1 μM, huBChE 500 nM, buffer
Source text: The fluorescence properties of probes 2C and 3B were then examined when they were bound to huBChE. […] This mirrored the differences in the emission of probe 2C between the buffer solution and the organic solvents (Figure 6(B)). […]. Most probably this is due to unspecific binding to protein surface and titration study (see Supplemental material) confirms this. Future development of probe 2C should thus be orientated towards lowering the lipophilicity, which should, in turn, reduce unspecific binding.
Figure 7. […]

[5] = read-out: K1, dissociation constant for binding to the free enzyme
[6] = read-out: K2, dissociation constant for binding to the acylated enzyme

Compound	IC50 (hBChE [1]) [µM]	remaining activity at 100 µM (mAChE) [%]	remaining activity at 100 µM (huAChE) [%]	Ki (purified huBChE; [5])	Ki (purified huBChE; [6]) [µM]	Kd (hBChE [2]) [µM]	concentration needed to achieve substantial inhibition of BChE (BChE in rat brain slices) [mM]	solubility in aqueous buffers (in words) [3]	enhancement of fluorescence intensity on addition of huBChE (hBChE [4])	huBChE inhibition (in words) (hBChE [1])	remaining activity at 100 µM (hBChE [1]) [%]
CCN(CC)c1ccc2cc(-c3nc(CN4CCCC(CN(CCN(C)C)C(=O)c5ccc6ccccc6c5)C4)cs3)c(=O)oc2c1 (stereo not drawn) [2C]	0.088	70	> 74	0.0033 µM and 0.00327 µM	0.0427 ± 0.0015	0.0055 ± 0.0016	1	sufficient aqueous solubility	approximately two-fold		
CN(C)CCNC(=O)c1cc2ccc(N(C)C)cc2oc1=O [2A]			18							very low and unselective inhibition of BChE	57
[N-]=[N+]=NCCOCCN(CC1CCCN(Cc2ccccc2)C1)S(=O)(=O)c1ccc2ccccc2c1 (stereo not drawn) [3C]	0.019	94	84							retained good inhibitory activity	
O=[N+]([O-])c1ccc(N2CCN(Cc3cn(CCOCCN(CC4CCCN(Cc5ccccc5)C4)S(=O)(=O)c4ccc5ccccc5c4)nn3)CC2)c2nonc12 (stereo not drawn) [3D]	0.214	100	98							substantial loss of inhibitory activity	
CN(C)c1ccc2cc(C(=O)NCC[N+](C)(C)C)c(=O)oc2c1 [2B]			25							very low and unselective inhibition of BChE	54
O=[N+]([O-])c1ccc(N2CCN(CCN(CC3CCCN(Cc4ccccc4)C3)S(=O)(=O)c3ccc4ccccc4c3)CC2)c2nonc12 (stereo not drawn) [3B]	0.018	97	57	0.00463 ± 2e-05 µM	0.0966 ± 0.002		1	improved solubility in aqueous solutions compared to 3A; also recorded: sufficient aqueous solubility	only marginally increased		
CCN(CC)c1ccc2cc(C(=O)N(CCOC)CC3CCCN(Cc4ccccc4)C3)c(=O)oc2c1 (stereo not drawn) [1A]		92	89								
CCN(CC)c1ccc2cc(C(=O)NCCOCCOCCN(CC3CCCN(Cc4ccccc4)C3)S(=O)(=O)c3ccc4ccccc4c3)c(=O)oc2c1 (stereo not drawn) [3A]	0.06	93	94	0.063 ± 0.0005 µM	0.296 ± 0.002			poor solubility in aqueous buffers; also recorded: low solubility			
